# Experimental data taken from patent US20040024024A1, “Aromatic sulfone hydroxamates and their use as protease inhibitors” (priority 2001, published 2004).
# Values joined by “and” are separate entries in the source; they are usually repeats but may differ in a detail not shown here. Identical values can stand only once. Counter-ions that a name gives are not always drawn.
# Assays:
# Human recombinant MMP-14 = molecular target: T1, Human recombinant MMP-14 (Homo sapiens, UniProt P50281); assay: In vitro MMP inhibition, IC50 determination (fluorogenic substrate I); assay type: biochemical
# T1 construct: The catalytic domain enzyme was expressed in E. coli inclusion bodies, solubilized in urea; made in house
# Method in brief: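 Catalytic-domain MMP-14, expressed in E. coli and refolded, activated with APMA or trypsin; compounds incubated at room temperature with 4 μM fluorogenic substrate I (MCA-PLGL-Dpa-AR-NH2) in Tris/NaCl/CaCl2 buffer, pH 7.5. Fluorescence at ex 328/em 415 nm; IC50 from loss of fluorescence versus inhibitor concentration.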
# Human recombinant MMP-2 = molecular target: T2, Human recombinant MMP-2 (Homo sapiens, UniProt P08253); assay: In vitro MMP inhibition, Ki determination (fluorogenic substrate II); assay type: biochemical
# T2 construct: made in house; host or cells: MMP-2-transfected p2AHT2 cells
# T2 sequence (P08253 110-660): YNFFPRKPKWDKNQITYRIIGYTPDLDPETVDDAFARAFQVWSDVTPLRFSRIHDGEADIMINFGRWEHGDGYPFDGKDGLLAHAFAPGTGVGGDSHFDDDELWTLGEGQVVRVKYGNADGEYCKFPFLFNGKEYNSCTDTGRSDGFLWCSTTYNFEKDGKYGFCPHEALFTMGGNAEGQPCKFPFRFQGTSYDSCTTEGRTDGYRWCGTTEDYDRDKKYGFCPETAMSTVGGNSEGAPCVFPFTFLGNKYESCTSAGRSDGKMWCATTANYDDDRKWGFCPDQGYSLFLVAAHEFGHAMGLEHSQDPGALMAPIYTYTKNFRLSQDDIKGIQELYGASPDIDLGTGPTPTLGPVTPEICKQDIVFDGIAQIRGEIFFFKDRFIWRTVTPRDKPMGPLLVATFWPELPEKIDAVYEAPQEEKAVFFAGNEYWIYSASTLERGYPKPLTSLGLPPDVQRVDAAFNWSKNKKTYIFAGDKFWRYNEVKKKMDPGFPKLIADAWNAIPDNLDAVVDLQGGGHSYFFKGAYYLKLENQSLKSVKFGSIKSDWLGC
# Method: Several hydroxamates and salts thereof were analyzed in in vitro assays to determine their ability to inhibit the MMP cleavage of peptide substrates. Inhibition (Ki) and IC50 constants were calculated from the assayed hydroxamate-MMP interactions.
# Human recombinant MMP-1, MMP-2, MMP-9, MMP-13, and MMP-14 were used in this assay. All enzymes were prepared in Assignee's laboratories following usual laboratory procedures. Protocols for the preparation and use of these enzymes are available in the scientific literature. See, e.g., Enzyme Nomenclature (Academic Press, San Diego, Calif., 1992) (and the citations therein). See also, Frije et al., J. Biol. Chem., 26(24), 16766-73 (1994).
# The MMP-2 proenzyme was purified by gelatin Sepharose chromatography from MMP-2-transfected p2AHT2 cells provided by Dr. Gregory Goldberg of Washington University (St. Louis, Mo.).
# All MMPs were activated using 4-aminophenylmercuric acetate (“APMA”, Sigma Chemical, St. Louis, Mo.) or trypsin. MMP-9 also was activated using human recombinant MMP-3 (purified in Assignee's laboratory following standard cloning and purification techniques).
# Two fluorogenic, methoxycoumarin-containing polypeptide substrates were used in the MMP inhibition assays:
# MCA-ArgProLeuGlyLeuDpaAlaArgGluArgNH2 (II)
# Here, “Dpa” is 3-(2,4-dinitrophenyl)-L-2,3-diaminopropionyl group, and “MCA” is 7-methoxycoumarin-4-yl acetyl. Substrate (I) was purchased from Baychem (Redwood City, Calif.), and substrate II was prepared Assignee's laboratory. Substrate I was used in the IC50 determination assays, while substrate II was used in the Ki determination assays. In the absence of MMP inhibitory activity, either substrate is cleaved at the Gly-Leu peptide bond. This cleavage separates the highly fluorogenic peptide from the 2,4-dinitrophenyl quencher, thus resulting in increase of fluorescent intensity.
# The stock solutions of the assayed hydroxamates (or salts thereof) were prepared in 1% dimethyl sulfoxide (DMSO). These stock solutions were diluted in Buffer A (100 mM Tris-HCl, 100 mM NaCl, 10 mM CaCl2, 0.05% polyoxyethylene 23 lauryl ether, pH 7.5) to obtain solutions with different hydroxamate concentrations, i.e., assay solutions with different concentrations of the assayed MMP inhibitory compound. The experiment controls contained the same amount of Buffer A/DMSO as the assayed sample, but contained no hydroxamate (or salt thereof).
# The assays from which the Ki determinations were made were performed as follows. The assayed hydroxamate samples were incubated in separate wells of untreated white polystyrene plates (Nunc Nalgene International, Rochester, N.Y.), and analyzed on a Tecan SpectraFlour Plus plate reader. The excitation wavelength was 330 nm, and the emission wavelength—420 nm. All samples (assayed hydroxamates and controls) were incubated in separate plate wells at room temperature for 1 hr in the presence of 4 μM of MMP substrate (II). In the absence of MMP inhibitory activity, substrate II was cleaved at the Gly-Leu bond resulting in an increase of relative fluorescence. Inhibition was observed as a reduced rate of this increase in relative fluorescence. The various hydroxamates were analyzed using a single low enzyme concentration with a single substrate concentration fixed at or below the Km. This protocol is a modification of method by Knight et al., FEBS Lett., 296(3), 263-266 (1992). Apparent inhibitory constants were determined by non-linear regression of reaction velocity as a function of inhibitor and enzyme concentration using Morrison's equation, as described by Kuzmic, Anal. Biochem. 286, 45-50 (2000). […] Since the substrate concentration was chosen to be at or below the Km, the apparent Ki's from this analysis were reported as Ki's without correction for the influence of substrate.
# [1] = substrate (I) 4 μM, room temperature, values not in parenthesis
# [2] = substrate (II) 4 μM, 1 hr room temperature, apparent Ki, values in parenthesis
structure (smiles),measurement,setting,value
"O=C(NO)C1(S(=O)(=O)c2ccc(OCCCc3nc(-c4ccc(OC(F)(F)F)cc4)no3)cc2)CCOCC1 [Example 31, tetrahydro-N-hydroxy-4-[[4-[3-[3[4-(trifluoromethoxy)phenyl]-1,2,4-oxadiazol-5-yl]propoxy]phenyl]sulfonyl]-2H-pyran-4-carboxamide]",IC50,Human recombinant MMP-14; [1],> 10000 nM
same,Ki,Human recombinant MMP-2; [2],413 nM
O=C(NO)C1(S(=O)(=O)c2ccc(OCCCc3cccc(-c4ccc(F)cc4)c3)cc2)CCOCC1 [Example 39],Ki,Human recombinant MMP-2; [2],1640 nM
O=C(NO)C1(S(=O)(=O)c2ccc(OCCc3cccc(-c4ccccn4)c3)cc2)CCOCC1 [Example 40],IC50,Human recombinant MMP-14; [1],> 10000 nM
same,Ki,Human recombinant MMP-2; [2],216 nM
"CCN1CCC(C(=O)NO)(S(=O)(=O)c2ccc(OCCCc3nc(-c4ccc(OC(F)(F)F)cc4)no3)cc2)CC1 [Example 41, 1-ethyl-N-hydroxy 4-{[4-(3-{3-[4-(trifluoromethoxy)phenyl]-1,2,4-oxadiazol-5-yl}propoxy)phenyl]sulfonyl}piperidine-4-carboxamide Hydrochloride]",IC50,Human recombinant MMP-14; [1],> 10000 nM
same,Ki,Human recombinant MMP-2; [2],415 nM
COCCN1CCC(C(=O)NO)(S(=O)(=O)c2ccc(OCCCc3nc(-c4ccc(OC(F)(F)F)cc4)no3)cc2)CC1 [Example 42],IC50,Human recombinant MMP-14; [1],> 10000 nM
same,Ki,Human recombinant MMP-2; [2],186 nM
CCN1CCC(C(=O)NO)(S(=O)(=O)c2ccc(OCCCc3cccc(-c4ccccc4)c3)cc2)CC1 [Example 46],IC50,Human recombinant MMP-14; [1],> 10000 nM
same,Ki,Human recombinant MMP-2; [2],786 nM
"COCCN1CCC(C(=O)NO)(S(=O)(=O)c2ccc(OCCCc3cc(-c4ccc(F)cc4F)cs3)cc2)CC1 [Example 47, 4-[(4-{3-[4-(2,4-difluorophenyl)thien-2-l]propoxy}phenyl)sulfonyl]-N-hydroxy-1-(2-methoxyethyl)piperidine-4-carboxamide Hydrochloride]",Ki,Human recombinant MMP-2; [2],19.2 nM and 46.5 nM
COCCN1CCC(C(=O)NO)(S(=O)(=O)c2ccc(OCCCn3nnc(-c4ccc(OC(F)(F)F)cc4)n3)cc2)CC1 [Example 48],IC50,Human recombinant MMP-14; [1],> 10000 nM
same,Ki,Human recombinant MMP-2; [2],228 nM
O=C(NO)C1(S(=O)(=O)c2ccc(OCCCn3nnc(-c4ccc(OC(F)(F)F)cc4)n3)cc2)CCN(C2CC2)CC1 [Example 49],IC50,Human recombinant MMP-14; [1],> 10000 nM
same,Ki,Human recombinant MMP-2; [2],440 nM
"O=C(NO)C1(S(=O)(=O)c2ccc(OCCCc3nc(-c4ccc(OC(F)(F)F)cc4)no3)cc2)CCN(C2CC2)CC1 [Example 51, 1-cyclopropyl-N-hydroxy-4-{[4-(3-{3-[4-(trifluoromethoxy)phenyl]-1,2,4-oxadiazol-5-yl}propoxy)phenyl]sulfonyl}piperidine-4-carboxamide Hydrochloride]",IC50,Human recombinant MMP-14; [1],> 10000 nM
same,Ki,Human recombinant MMP-2; [2],93.7 nM
NC(=O)c1cccc(OCCOc2ccc(S(=O)(=O)C3(C(=O)NO)CCOCC3)cc2)c1 [Example 54],Ki,Human recombinant MMP-2; [2],64.8 nM
O=C(NO)C1(S(=O)(=O)c2ccc(OCCCc3cccc(-c4ccco4)c3)cc2)CCOCC1 [Example 97],Ki,Human recombinant MMP-2; value in parenthesis,295 nM
O=C1Nc2ccc(-c3noc(CCCOc4ccc(S(=O)(=O)C5(C(=O)NO)CCN(C6CC6)CC5)cc4)n3)cc21 [Example 142],Ki,Human recombinant MMP-2; value in parenthesis,96.4 nM
O=C(NO)C1(S(=O)(=O)c2ccc(OCCCc3cccc(-c4ccc(OC(F)(F)F)cc4)c3)cc2)CCOCC1 [Example 147],Ki,Human recombinant MMP-2; value in parenthesis,> 10000 nM
O=C(NO)C1(S(=O)(=O)c2ccc(OCCCc3cccc(-c4ccccn4)c3)cc2)CCOCC1 [Example 148],Ki,Human recombinant MMP-2; value in parenthesis,213 nM
O=C(NO)C1(S(=O)(=O)c2ccc(OCCCc3cccc(-c4ccncc4)c3)cc2)CCOCC1 [Example 149],Ki,Human recombinant MMP-2; value in parenthesis,84.1 nM
CC(C)c1ccc(-c2cccc(CCCOc3ccc(S(=O)(=O)C4(C(=O)NO)CCOCC4)cc3)c2)cc1 [Example 160],Ki,Human recombinant MMP-2; value in parenthesis,> 10000 nM
O=C(NO)C1(S(=O)(=O)c2ccc(OCCCc3cccc(-c4ccccc4Cl)c3)cc2)CCOCC1 [Example 162],Ki,Human recombinant MMP-2; value in parenthesis,2370 nM
Cc1ccccc1-c1cccc(CCCOc2ccc(S(=O)(=O)C3(C(=O)NO)CCOCC3)cc2)c1 [Example 164],Ki,Human recombinant MMP-2; value in parenthesis,978 nM
Cc1ccc(-c2cccc(CCCOc3ccc(S(=O)(=O)C4(C(=O)NO)CCOCC4)cc3)c2)cc1C [Example 165],Ki,Human recombinant MMP-2; value in parenthesis,> 10000 nM
O=C(NO)C1(S(=O)(=O)c2ccc(OCCCc3cncc(Br)c3)cc2)CCOCC1 [Example 522],Ki,Human recombinant MMP-2; value in parentheses,32.1 nM
O=C(COc1ccc(S(=O)(=O)C2(C(=O)NO)CCOCC2)cc1)c1cccc(-c2ccccc2)c1 [Example 563],Ki,Human recombinant MMP-2; value in parentheses,70.1 nM
O=C(CCCOc1ccc(S(=O)(=O)C2(C(=O)NO)CCOCC2)cc1)Nc1cccc(I)c1 [Example 570],Ki,Human recombinant MMP-2; value in parentheses,10.1 nM
O=C(NO)C1(S(=O)(=O)c2ccc(OCCCc3cccc(-n4ccnc4)c3)cc2)CCOCC1 [Example 574],Ki,Human recombinant MMP-2; value in parentheses,112 nM
O=C(NO)C1(S(=O)(=O)c2ccc(OCCCc3nc(-c4cccnc4)no3)cc2)CCOCC1 [Example 578],Ki,Human recombinant MMP-2; value in parentheses,72.1 nM
O=C(NO)C1(S(=O)(=O)c2ccc(OCCCc3nc(-c4ccccc4)no3)cc2)CCOCC1 [Example 584],Ki,Human recombinant MMP-2; value in parentheses,20.8 nM
CCN1CCC(C(=O)NO)(S(=O)(=O)c2ccc(OCCCSc3nc4ccccc4s3)cc2)CC1 [Example 591],IC50,Human recombinant MMP-14; value outside parentheses,> 10000 nM
O=C(NO)C1(S(=O)(=O)c2ccc(OCCCc3cccc(-c4ccc(C(F)(F)F)cc4)c3)cc2)CCOCC1 [Example 625],Ki,Human recombinant MMP-2; value in parentheses,6860 nM
O=C(NO)C1(S(=O)(=O)c2ccc(OCCCc3cccc(-c4ccc5c(c4)OCCO5)c3)cc2)CCOCC1 [Example 627],Ki,Human recombinant MMP-2; value in parentheses,3950 nM
O=C(NO)C1(S(=O)(=O)c2ccc(OCCCc3cccc(-c4ccc5ccccc5c4)c3)cc2)CCOCC1 [Example 629],Ki,Human recombinant MMP-2; value in parentheses,1020 nM
O=C(NO)C1(S(=O)(=O)c2ccc(OCCCc3cccc(-c4csc5ccccc45)c3)cc2)CCOCC1 [Example 631],Ki,Human recombinant MMP-2; value in parentheses,4960 nM
O=C(NO)C1(S(=O)(=O)c2ccc(OCCCc3cccc(-c4cc5ccccc5s4)c3)cc2)CCOCC1 [Example 633],Ki,Human recombinant MMP-2; value in parentheses,4580 nM
O=C(NO)C1(S(=O)(=O)c2ccc(OCCCc3cccc(-c4coc5ccccc45)c3)cc2)CCOCC1 [Example 634],Ki,Human recombinant MMP-2; value in parentheses,983 nM
C=Cc1ccc(-c2cccc(CCCOc3ccc(S(=O)(=O)C4(C(=O)NO)CCOCC4)cc3)c2)cc1 [Example 635],Ki,Human recombinant MMP-2; value in parentheses,4680 nM
O=C(NO)C1(S(=O)(=O)c2ccc(OCCCc3cccc(-c4ccccc4O)c3)cc2)CCOCC1 [Example 636],Ki,Human recombinant MMP-2; value in parentheses,527 nM
O=C(NO)C1(S(=O)(=O)c2ccc(OCCCc3cccc(-c4cccc5ccccc45)c3)cc2)CCOCC1 [Example 638],Ki,Human recombinant MMP-2; value in parentheses,8120 nM
Cc1ccc(-c2cccc(CCCOc3ccc(S(=O)(=O)C4(C(=O)NO)CCOCC4)cc3)c2)s1 [Example 639],Ki,Human recombinant MMP-2; value in parentheses,505 nM
